The data set in a line: Test E: determination of thrombin time ex vivo (bioavailability of active inhibitor after prodrug administration). The following applies: conscious rat, estimated from thrombin time or ecarin clotting time in plasma.

Text: Determination of Thrombin Time Ex Vivo
The inhibition of thrombin after oral or parenteral administration of the compounds of formula I, dissolved in ethanol:Solutol™:water (5:5:90), were examined in conscious rats which, one or two days prior to the experiment, were equipped with a catheter for blood sampling from the carotid artery. On the experimental day blood samples were withdrawn at fixed times after the administration of the compound into plastic tubes containing 1 part sodium citrate solution (0.13 mol per L) and 9 parts of blood. The tubes were centrifuged to obtain platelet poor plasma. The plasma was used for determination of thrombin time or ecarin clotting time (ECT) as described below.
The citrated rat plasma, 100 μL, was diluted with a saline solution, 0.9%, 100 μL, and plasma coagulation was started by the addition of human thrombin (T 6769, Sigma Chem Co, USA or Hematologic Technologies) in a buffer solution, pH 7.4, 100 μL, or ecarin (Pentapharm). The clotting time was measured in an automatic device (KC 10, Amelung, Germany).
[(AUCpd/dose)/(AUCactive,parenteral/dose]×100

Turning to `CON=C(N)c1ccc(CNC(=O)[C@@H]2CCN2C(=O)C(O)c2cc(Cl)cc(N(C)C)c2)cc1` (single isomer, unassigned) [Example 12, Ph(3-Cl,5-NMe2)-(R) or-(S)CH(OH)C(O)-Aze-Pab(OMe)], the “oral and/or parenteral bioavailability as the corresponding active inhibitor (free amidine)” value is “exhibit oral and/or parenteral bioavailability in the rat”. As for `CON=C(N)c1ccc(CNC(=O)C2CCN2C(=O)C(O)c2cc(Cl)cc(N(C)C(C)=O)c2)cc1.O=C(O)C(F)(F)F` (single isomer, unassigned) [Example 18, Ph(3-Cl,5-NMeAc)-(R) or-(S)CH(OH)C(O)-Aze-Pab(OMe)×TFA], the entry is “exhibit oral and/or parenteral bioavailability in the rat”; as for `CON=C(N)c1ccc(CNC(=O)C2CCN2C(=O)C(O)c2cccc(N3CCCC3=O)c2)cc1.O=C(O)C(F)(F)F` (single isomer, unassigned) [Example 19, Ph(3-(1-Pyrrolidin-2-one))-(R) or-(S)CH(OH)C(O)-Aze-Pab(OMe)×TFA], “exhibit oral and/or parenteral bioavailability in the rat”; as for `CON=C(N)c1ccc(CNC(=O)C2CCN2C(=O)C(O)c2cccc(N(C)C)c2)cc1` [Example 2, Ph(3-N(Me)2)-(R)- or-(S)CH(OH)—CO-Aze-Pab(OMe)], “exhibit oral and/or parenteral bioavailability in the rat”. As for “Ph(3-Cl,5-NMe2)-(R) or -(S)CH(OH)C(O)-Aze-Pab(O-Et) [Example 13]”, the entry is “exhibit oral and/or parenteral bioavailability in the rat”; as for “Ph(3-Cl,5-NMe2)-(R) or -(S)CH(OH)C(O)-Aze-Pab(O-i-Pr) [Example 15]”, “exhibit oral and/or parenteral bioavailability in the rat”.

These data come from patent publication US6599894B1, “Amidinobenzylamine derivatives and their use as thrombin inhibitors” (AstŕaZeneca AB, priority 1999, dated 2003).
